Test results taken from the Kinase Knowledgebase extract (Sharma et al. 2016).

Key:
EGFR (human) [1] = molecular target: EGFR (human) (UniProt P00533); settings: HN5
EGFR (human) [2] = molecular target: EGFR (human) (UniProt P00533); settings: hn5
EGFR (human) [3] = molecular target: EGFR (human) (UniProt P00533); settings: caski
EGFR (human) [4] = molecular target: EGFR (human) (UniProt P00533); settings: siha
EGFR (human) [5] = molecular target: EGFR (human) (UniProt P00533); settings: rpmi8226
EGFR (human) [6] = molecular target: EGFR (human) (UniProt P00533); settings: k562
EGFR (human) [7] = molecular target: EGFR (human) (UniProt P00533); settings: ekvx
EGFR (human) [8] = molecular target: EGFR (human) (UniProt P00533); settings: hop-62
EGFR (human) [9] = molecular target: EGFR (human) (UniProt P00533); settings: h226
EGFR (human) [10] = molecular target: EGFR (human) (UniProt P00533); settings: h23
EGFR (human) [11] = molecular target: EGFR (human) (UniProt P00533); settings: h322m
EGFR (human) [12] = molecular target: EGFR (human) (UniProt P00533); settings: h460
EGFR (human) [13] = molecular target: EGFR (human) (UniProt P00533); settings: colo-205
EGFR (human) [14] = molecular target: EGFR (human) (UniProt P00533); settings: hct 116
EGFR (human) [15] = molecular target: EGFR (human) (UniProt P00533); settings: hct-15
EGFR (human) [16] = molecular target: EGFR (human) (UniProt P00533); settings: ht-29
EGFR (human) [17] = molecular target: EGFR (human) (UniProt P00533); settings: km-12
EGFR (human) [18] = molecular target: EGFR (human) (UniProt P00533); settings: sw 620
EGFR (human) [19] = molecular target: EGFR (human) (UniProt P00533); settings: sf268
EGFR (human) [20] = molecular target: EGFR (human) (UniProt P00533); settings: snb-19
EGFR (human) [21] = molecular target: EGFR (human) (UniProt P00533); settings: snb-75
EGFR (human) [22] = molecular target: EGFR (human) (UniProt P00533); settings: lox-imvi
EGFR (human) [23] = molecular target: EGFR (human) (UniProt P00533); settings: malme-3m
EGFR (human) [24] = molecular target: EGFR (human) (UniProt P00533); settings: m14
EGFR (human) [25] = molecular target: EGFR (human) (UniProt P00533); settings: sk-mel-2
EGFR (human) [26] = molecular target: EGFR (human) (UniProt P00533); settings: sk-mel-28
EGFR (human) [27] = molecular target: EGFR (human) (UniProt P00533); settings: uacc-257
EGFR (human) [28] = molecular target: EGFR (human) (UniProt P00533); settings: uacc62
EGFR (human) [29] = molecular target: EGFR (human) (UniProt P00533); settings: igr-ovi
EGFR (human) [30] = molecular target: EGFR (human) (UniProt P00533); settings: ovcar-3
EGFR (human) [31] = molecular target: EGFR (human) (UniProt P00533); settings: ovcar-4
EGFR (human) [32] = molecular target: EGFR (human) (UniProt P00533); settings: sk-ov-3
EGFR (human) [33] = molecular target: EGFR (human) (UniProt P00533); settings: 786-0
EGFR (human) [34] = molecular target: EGFR (human) (UniProt P00533); settings: achn
EGFR (human) [35] = molecular target: EGFR (human) (UniProt P00533); settings: caki-1
EGFR (human) [36] = molecular target: EGFR (human) (UniProt P00533); settings: rxf-393
EGFR (human) [37] = molecular target: EGFR (human) (UniProt P00533); settings: tk-10
EGFR (human) [38] = molecular target: EGFR (human) (UniProt P00533); settings: uo-31
EGFR (human) [39] = molecular target: EGFR (human) (UniProt P00533); settings: pc-3
EGFR (human) [40] = molecular target: EGFR (human) (UniProt P00533); settings: uo-31; remark: listed apart in the source
EGFR (human) [41] = molecular target: EGFR (human) (UniProt P00533); settings: mda-mb-231/atcc
EGFR (human) [42] = molecular target: EGFR (human) (UniProt P00533); settings: h7 578t
EGFR (human) [43] = molecular target: EGFR (human) (UniProt P00533); settings: mda-mb-435
EGFR (human) [44] = molecular target: EGFR (human) (UniProt P00533); settings: mda-n
EGFR (human) [45] = molecular target: EGFR (human) (UniProt P00533); settings: t-47d
EGFR (human) [46] = molecular target: EGFR (human) (UniProt P00533); settings: mg-mid
EGFR (human) [47] = molecular target: EGFR (human) (UniProt P00533); settings: delta
EGFR (human) [48] = molecular target: EGFR (human) (UniProt P00533); settings: ccrf-cem leukemia cell
EGFR (human) [49] = molecular target: EGFR (human) (UniProt P00533); settings: sr
EGFR (human) [50] = molecular target: EGFR (human) (UniProt P00533); settings: molt-4

EGFR (human), sequence (P00533 whole entry, looked up): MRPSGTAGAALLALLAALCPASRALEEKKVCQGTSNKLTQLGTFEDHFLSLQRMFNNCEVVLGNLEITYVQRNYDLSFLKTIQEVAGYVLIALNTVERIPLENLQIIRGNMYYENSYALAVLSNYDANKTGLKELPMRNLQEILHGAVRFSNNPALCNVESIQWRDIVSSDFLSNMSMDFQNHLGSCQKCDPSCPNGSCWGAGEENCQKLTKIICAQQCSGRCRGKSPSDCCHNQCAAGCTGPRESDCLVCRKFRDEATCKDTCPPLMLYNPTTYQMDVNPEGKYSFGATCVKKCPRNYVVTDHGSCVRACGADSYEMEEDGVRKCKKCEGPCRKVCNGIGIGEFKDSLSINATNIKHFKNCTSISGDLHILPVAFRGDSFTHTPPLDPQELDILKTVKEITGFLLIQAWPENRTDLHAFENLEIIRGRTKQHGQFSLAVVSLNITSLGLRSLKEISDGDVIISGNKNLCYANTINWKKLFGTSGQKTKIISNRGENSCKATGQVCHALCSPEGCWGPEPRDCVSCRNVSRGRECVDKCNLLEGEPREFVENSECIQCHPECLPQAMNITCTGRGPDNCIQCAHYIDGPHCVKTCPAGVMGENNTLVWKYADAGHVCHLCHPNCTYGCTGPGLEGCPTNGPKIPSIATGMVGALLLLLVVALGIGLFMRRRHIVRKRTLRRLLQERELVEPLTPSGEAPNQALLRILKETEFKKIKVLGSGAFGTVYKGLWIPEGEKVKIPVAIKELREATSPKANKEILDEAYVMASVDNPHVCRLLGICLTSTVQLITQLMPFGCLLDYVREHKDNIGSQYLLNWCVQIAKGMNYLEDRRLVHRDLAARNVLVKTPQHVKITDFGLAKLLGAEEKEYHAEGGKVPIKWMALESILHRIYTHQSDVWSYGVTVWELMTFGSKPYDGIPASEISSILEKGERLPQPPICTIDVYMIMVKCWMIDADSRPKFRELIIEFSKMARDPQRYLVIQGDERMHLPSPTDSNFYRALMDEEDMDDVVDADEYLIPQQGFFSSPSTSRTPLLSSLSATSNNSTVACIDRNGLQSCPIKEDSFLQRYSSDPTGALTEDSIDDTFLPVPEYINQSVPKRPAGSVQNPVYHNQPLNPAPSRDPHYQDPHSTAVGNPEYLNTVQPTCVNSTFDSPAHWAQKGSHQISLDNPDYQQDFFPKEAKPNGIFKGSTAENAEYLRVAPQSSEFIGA

N#CC(C#N)=C(N)/C(C#N)=C/c1ccc([N+](=O)[O-])s1
Settings | GI50 [µM] | IC50 [µM]
EGFR (human) [1] | – | 12.2
EGFR (human) [2] | – | 8.4
EGFR (human) [3] | – | 9.24
EGFR (human) [4] | – | 13.4
EGFR (human) [5] | 5.01 | –
EGFR (human) [6] | 3.89 | –
EGFR (human) [7] | 19.5 | –
EGFR (human) [8] | 19.5 | –
EGFR (human) [9] | 17.8 | –
EGFR (human) [10] | 16.6 | –
EGFR (human) [11] | 20.9 | –
EGFR (human) [12] | 23.4 | –
EGFR (human) [13] | 15.1 | –
EGFR (human) [14] | 3.39 | –
EGFR (human) [15] | 17.8 | –
EGFR (human) [16] | 15.8 | –
EGFR (human) [17] | 18.2 | –
EGFR (human) [18] | 3.23 | –
EGFR (human) [19] | 22.4 | –
EGFR (human) [20] | 17.8 | –
EGFR (human) [21] | 14.8 | –
EGFR (human) [22] | 11.5 | –
EGFR (human) [23] | 22.9 | –
EGFR (human) [24] | 12 | –
EGFR (human) [25] | 19.5 | –
EGFR (human) [26] | 17 | –
EGFR (human) [27] | 10.5 | –
EGFR (human) [28] | 79.4 | –
EGFR (human) [29] | 7.24 | –
EGFR (human) [30] | 15.5 | –
EGFR (human) [31] | 15.5 | –
EGFR (human) [32] | 17.8 | –
EGFR (human) [33] | 19.9 | –
EGFR (human) [34] | 19.9 | –
EGFR (human) [35] | 18.2 | –
EGFR (human) [36] | 9.33 | –
EGFR (human) [37] | 18.2 | –
EGFR (human) [38] | 18.2 | –
EGFR (human) [39] | 19.9 | –
EGFR (human) [40] | 14.8 | –
EGFR (human) [41] | 17 | –
EGFR (human) [42] | 18.6 | –
EGFR (human) [43] | 12.3 | –
EGFR (human) [44] | 4.57 | –
EGFR (human) [45] | 6.91 | –
EGFR (human) [46] | 13.2 | –
EGFR (human) [47] | 4.07 | –
EGFR (human) [48] | 4.17 | –
EGFR (human) [49] | 12 | –
EGFR (human) [50] | 5.89 | –

N#CC(C#N)=Cc1csc([N+](=O)[O-])c1
Settings | GI50 [µM] | IC50 [µM]
EGFR (human) [1] | – | 23
EGFR (human) [2] | – | 40.4
EGFR (human) [3] | – | 40
EGFR (human) [4] | – | 44.6
EGFR (human) [5] | 31.6 | –
EGFR (human) [6] | 27.5 | –
EGFR (human) [7] | > 100 | –
EGFR (human) [8] | 25.7 | –
EGFR (human) [9] | > 100 | –
EGFR (human) [10] | 30.2 | –
EGFR (human) [11] | 74.1 | –
EGFR (human) [12] | 54.9 | –
EGFR (human) [13] | 27.5 | –
EGFR (human) [14] | 16.2 | –
EGFR (human) [15] | 33.9 | –
EGFR (human) [16] | 21.9 | –
EGFR (human) [17] | 35.5 | –
EGFR (human) [18] | 43.6 | –
EGFR (human) [19] | 38.9 | –
EGFR (human) [20] | 60.2 | –
EGFR (human) [21] | 25.1 | –
EGFR (human) [22] | 30.9 | –
EGFR (human) [23] | 33.9 | –
EGFR (human) [24] | 17.8 | –
EGFR (human) [25] | 26.9 | –
EGFR (human) [26] | 16.2 | –
EGFR (human) [27] | 19 | –
EGFR (human) [28] | 17.8 | –
EGFR (human) [29] | 24 | –
EGFR (human) [30] | 21.9 | –
EGFR (human) [31] | 28.8 | –
EGFR (human) [32] | 59 | –
EGFR (human) [33] | 33.9 | –
EGFR (human) [34] | 19.5 | –
EGFR (human) [35] | 24.5 | –
EGFR (human) [36] | 17.4 | –
EGFR (human) [37] | 45.7 | –
EGFR (human) [38] | 17.8 | –
EGFR (human) [39] | 38 | –
EGFR (human) [40] | 15.1 | –
EGFR (human) [41] | 26.3 | –
EGFR (human) [42] | 28.2 | –
EGFR (human) [43] | 20.9 | –
EGFR (human) [44] | 19.9 | –
EGFR (human) [45] | 22.9 | –
EGFR (human) [46] | 30.2 | –
EGFR (human) [47] | 1.99 | –
EGFR (human) [48] | 23.4 | –
EGFR (human) [49] | 30.2 | –
EGFR (human) [50] | 23.4 | –

CCOC(=O)/C(C#N)=C/c1ccc([N+](=O)[O-])s1
Settings | GI50 [µM] | IC50 [µM]
EGFR (human) [1] | – | 34
EGFR (human) [2] | – | 5.4
EGFR (human) [3] | – | 6.94
EGFR (human) [4] | – | 4.59
EGFR (human) [5] | 2.34 | –
EGFR (human) [6] | 1.2 | –
EGFR (human) [7] | 15.5 | –
EGFR (human) [8] | 14.8 | –
EGFR (human) [9] | 16.2 | –
EGFR (human) [10] | 2.63 | –
EGFR (human) [11] | 17 | –
EGFR (human) [12] | 6.92 | –
EGFR (human) [13] | 1.62 | –
EGFR (human) [14] | 1.48 | –
EGFR (human) [15] | 2.19 | –
EGFR (human) [16] | 2.04 | –
EGFR (human) [17] | 6.92 | –
EGFR (human) [18] | 1.48 | –
EGFR (human) [19] | 6.16 | –
EGFR (human) [20] | 14.8 | –
EGFR (human) [21] | 7.58 | –
EGFR (human) [22] | 1.86 | –
EGFR (human) [23] | 2.24 | –
EGFR (human) [24] | 1.74 | –
EGFR (human) [25] | 3.31 | –
EGFR (human) [26] | 2.95 | –
EGFR (human) [27] | 2.09 | –
EGFR (human) [28] | 1.35 | –
EGFR (human) [29] | 1.66 | –
EGFR (human) [30] | 2.04 | –
EGFR (human) [31] | 1.7 | –
EGFR (human) [32] | 15.5 | –
EGFR (human) [33] | 10.7 | –
EGFR (human) [34] | 1.9 | –
EGFR (human) [35] | 2.14 | –
EGFR (human) [36] | 1.7 | –
EGFR (human) [37] | 3.47 | –
EGFR (human) [38] | 1.86 | –
EGFR (human) [39] | 2.95 | –
EGFR (human) [40] | 10.7 | –
EGFR (human) [41] | 1.86 | –
EGFR (human) [42] | 3.47 | –
EGFR (human) [43] | 2.34 | –
EGFR (human) [44] | 2.19 | –
EGFR (human) [45] | 2.75 | –
EGFR (human) [46] | 3.47 | –
EGFR (human) [47] | 12 | –
EGFR (human) [48] | 1.55 | –
EGFR (human) [49] | 3.02 | –
EGFR (human) [50] | 1.74 | –
